In patent US20190218508A1, “METHODS OF CELL SEPARATION” (CELLS4LIFE GROUP LLP, priority 2013, published 2019):

Tested on: erythrocytes
Test: Visual separation (sedimentation) of erythrocyte and nucleated cell fractions of blood samples
Assay type: cell-based
Settings: for order from best to worst of each substance at the separation / separation of whole blood: Example 4; for order from best to worst of each substance at the separation: with 2.5% Dextran 70; for separation of whole blood: whole blood 1:1 with PBS composition of 2.5% Dextran 70 plus substance at 1-5%, 30 minutes room temperature
Procedure: Umbilical cord blood was collected into standard Baxter 250 ml (nominal) blood bags containing 35 ml of a citrate phosphate dextrose adenine (CPDA) anticoagulant solution.
A solution containing dextran and a further constituent selected from dimethyl sulphoxide (DMSO), dimethyl glycine (DMG), L-valine, L-proline, β-alanine, leucine, isoleucine and glycine, in phosphate-buffered saline (PBS), was prepared. This solution was added to a blood sample at a ratio of 1:1, this was then mixed thoroughly. Separation of the erythrocyte and nucleated cell fractions took place at room temperature within a time period of 15 or 30 minutes. […]
Whole blood samples were mixed with 1:1 with PBS compositions comprising 2.5% Dextran 70 plus DMSO, L-valine, L-proline, β-alanine, leucine, isoleucine, glycine and DMG. Each of the amino acids and the DMSO were tested at concentration levels of 1%, 1.5%, 2%, 2.5%, 3%, 3.5%, 4%, 4.5% and 5% in the PBS composition. After mixing, each sample was left for 30 minutes at room temperature. […]

[1] = dextran 70 Mw final 2.5% + substance final 2.5% w/v, after 30 minutes, data not shown

For CN(C)CC(=O)O [DMG, dimethyl glycine], the “order from best to worst of each substance at the separation” value (from here on “order from best to worst”) was “DMSO>L-valine>DMG>L-proline>β-alanine>Leucine/isoleucine/glycine” and the “separation of erythrocytes and nucleated cells” value [1] was “clear separation”.

C[S+](C)[O-] [DMSO, dimethyl sulphoxide] was tested, and the “order from best to worst” value was “DMSO>L-valine>DMG>L-proline>β-alanine>Leucine/isoleucine/glycine”, the “separation of erythrocytes and nucleated cells” value (dextran 500 Mw final 2.5% w/v + DMSO final 1% to 5% v/v, after 15 minutes and 30 minutes) was “clear separation” and the “separation of the erythrocytes from the nucleated cells” value (umbilical cord blood 1:1, dextran 500 Mw final 2.5% w/v + DMSO final 2% or 2.5% v/v, 30 minutes) was “clear separation”.

For O=C(O)[C@@H]1CCCN1 [L-proline], the “separation of whole blood” value was “did very little”, the “order from best to worst” value was “DMSO>L-valine>DMG>L-proline>β-alanine>Leucine/isoleucine/glycine” and the “separation of erythrocytes and nucleated cells” value [1] was “little if any separation”.

CC(C)[C@H](N)C(=O)O [L-valine] was tested, and the “separation of whole blood” value was “performed better than DMG”, the “order from best to worst” value was “DMSO>L-valine>DMG>L-proline>β-alanine>Leucine/isoleucine/glycine” and the “separation of erythrocytes and nucleated cells” value [1] was “clear separation”.

For NCC(=O)O [glycine], the “separation of whole blood” value was “almost total inactivity”, the “order from best to worst” value was “DMSO>L-valine>DMG>L-proline>β-alanine>Leucine/isoleucine/glycine” and the “separation of erythrocytes and nucleated cells” value [1] was “little if any separation”.

In the case of CC[C@H](C)[C@H](N)C(=O)O [isoleucine], the “separation of whole blood” value is reported as “almost total inactivity”, the “order from best to worst” value is reported as “DMSO>L-valine>DMG>L-proline>β-alanine>Leucine/isoleucine/glycine” and the “separation of erythrocytes and nucleated cells” value [1] is reported as “little if any separation”.

With CC(C)C[C@H](N)C(=O)O [leucine] the “separation of whole blood” value was “almost total inactivity”, the “order from best to worst” value was “DMSO>L-valine>DMG>L-proline>β-alanine>Leucine/isoleucine/glycine” and the “separation of erythrocytes and nucleated cells” value [1] was “little if any separation”.

With NCCC(=O)O [β-alanine] the “separation of whole blood” value was “did very little”, the “order from best to worst” value was “DMSO>L-valine>DMG>L-proline>β-alanine>Leucine/isoleucine/glycine” and the “separation of erythrocytes and nucleated cells” value [1] was “little if any separation”.
